PubChem BioAssay AID1963856 (Molecular Pharmacology Branch, DTP, NCI, 2024)

System: LG0567-F671-PDC KRAS tumor spheroid viability
Test: Anticancer human tumor LG0567-F671-PDC patient-derived lung adenocarcinoma cell line growth inhibition [KRAS2]
Conditions: spheroids with HUVEC and MSC; for IC50: curve of first compound; for viability, T/C: stronger effect = lower value
Excerpt: Multicellular complex tumor spheroid response to RAS pathway inhibitors in combination with a targeted agents in patient-derived cell lines with oncogenic KRAS variants from multiple cancer types
A high-throughput screen of multi-cell type tumor spheroids was designed to identify active combinations of targeted small molecules and KRAS pathway inhibitors. Complex spheroids include a stromal component modeled by human endothelial cells (HUVEC) and fibroblasts modeled by human mesenchymal stem cells (MSCs). The concentration ranges selected for each drug and investigational agent were based upon clinically achievable concentrations if the clinical Cmax of the agent was known.
Compounds. The drugs and investigational agents: BI-3406 (NSC825286), BAY-293 (NSC824723), batoprotafib (TNO155; NSC825523), sotorasib (AMG 510; NSC818433), MRTX1257 (NSC819558), elimusertib (BAY 1895344; NSC800525), molibresib (GSK525762; NSC774829), temuterkib (LY3214996; NSC803410), venetoclax (NSC766270), alisertib (NSC759677), olaparib (NSC753686), talazoparib (NSC767125), erdafitinib (NSC781556), ipatasertib (NSC767898), cabozantinib (NSC761068), nintedanib (NSC756659), abemaciclib (NSC768073), docetaxel (NSC628503), trametinib (NSC758246), and sapanisertib (NSC764658) were obtained from the National Cancer Institute (NCI) Developmental Therapeutics Program Chemical Repository. The FDA-approved anticancer drug set is available from the Developmental Therapeutics Program. […] The stock solutions were prepared in dimethyl sulfoxide (DMSO, Sigma-Aldrich, St. Louis, MO, cat. D2650) at 800-fold the tested concentration and stored at -70 degrees C prior to their use. All drugs and investigational agents were tested over a range starting from a high concentration at or near the clinical Cmax and decreasing in half-log increments. If the clinical Cmax for an agent had not been determined, the highest concentration tested was 10 microM.
Cell Culture. All cells were maintained in an incubator at 37 degrees C and 5% CO2 with 95% humidity. The PDC lines were cultured according to standard operating procedures established by the NCI PDMR (https://pdmr.cancer.gov/sops/default.htm). Briefly, all PDCs were thawed and cultured in Matrigel-coated flasks prepared with a working solution of 1X Ham's F-12 nutrient mix, without supplementation (Invitrogen, Waltham, MA, cat. 11765054), 100 U/mL penicillin-streptomycin (Invitrogen, cat. 15140122), and 2.5% Matrigel (Corning Inc., Corning, NY, cat. 354248) for the first three passages. All PDCs were cultured in complete DMEM/F-12 media containing advanced DMEM/F-12 (Invitrogen, cat. 12634028), 4.9% defined fetal bovine serum, heat inactivated (HyClone Laboratories Inc., Logan, UT, cat. SH30070.03HI), 389 ng/mL hydrocortisone (Sigma-Aldrich, cat. H4001), 9.7 ng/mL human EGF recombinant protein (Invitrogen, cat. PHG0313), 23.4 microg/mL adenine (Sigma-Aldrich, cat. A2786), 97.3 U/mL penicillin-streptomycin (Invitrogen, cat. 15140122), 1.9 mM L-glutamine (Invitrogen, cat. 25030081), and 9.7 microM Y-27632 dihydrochloride (Tocris Bioscience, Bristol, United Kingdom, cat. 1254). The PDCs were cultured in complete DMEM/F12 media without 9.7 microM Y-27632 dihydrochloride for at least two passages prior to the screen. The established cell line HOP-62 was cultured in RPMI 1640 medium, HEPES (Invitrogen, cat. 22400105) with 10% defined fetal bovine serum (HyClone Laboratories Inc., cat. SH30070.03) and 2 mM L-glutamine (Invitrogen, cat. 25030081). The pooled donor HUVEC were cultured in endothelial cell growth medium 2 (PromoCell, Heidelberg, Germany, cat. C-22011) and the hMSC were cultured in mesenchymal stem cell growth medium 2 (PromoCell, cat. C-28009). For all experiments, HUVEC and hMSC were used at passages </=5, while the malignant cell lines were used at passages </=15. […]

[1] = second compound 0.1 µM, first compound 0.0316 µM
[2] = second compound 0.1 µM, first compound 0.1 µM
[3] = second compound 0.1 µM, first compound 0.316 µM
[4] = second compound 0.1 µM, first compound 1 µM
[5] = second compound 0.1 µM, first compound 3.16 µM
[6] = second compound 0.316 µM, first compound 0.0316 µM
[7] = second compound 0.316 µM, first compound 0.1 µM
[8] = second compound 0.316 µM, first compound 0.316 µM
[9] = second compound 0.316 µM, first compound 1 µM
[10] = second compound 0.316 µM, first compound 3.16 µM
[11] = second compound 1 µM, first compound 0.0316 µM
[12] = second compound 1 µM, first compound 0.1 µM
[13] = second compound 1 µM, first compound 0.316 µM
[14] = second compound 1 µM, first compound 1 µM
[15] = second compound 1 µM, first compound 3.16 µM
[16] = second compound 3.16 µM, first compound 0.0316 µM
[17] = second compound 3.16 µM, first compound 0.1 µM
[18] = second compound 3.16 µM, first compound 0.316 µM
[19] = second compound 3.16 µM, first compound 1 µM
[20] = second compound 3.16 µM, first compound 3.16 µM
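Note: drug exposure lasted seven days after spheroids formed for three days.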
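Throughout, for viability, T/C: 100% = DMSO vehicle control viability.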

SMILES	IC50 (second compound 0.1 µM) [nM]	IC50 (second compound 0.316 µM) [nM]	IC50 (second compound 1 µM) [nM]	IC50 (second compound 3.16 µM) [nM]	viability, T/C [1] [%]	viability, T/C [2] [%]	viability, T/C [3] [%]	viability, T/C [4] [%]	viability, T/C [5] [%]	viability, T/C [6] [%]	viability, T/C [7] [%]	viability, T/C [8] [%]	viability, T/C [9] [%]	viability, T/C [10] [%]	viability, T/C [11] [%]	viability, T/C [12] [%]	viability, T/C [13] [%]	viability, T/C [14] [%]	viability, T/C [15] [%]	viability, T/C [16] [%]	other results
COc1cc(Nc2ncc3c(n2)-c2ccc(Cl)cc2C(c2c(F)cccc2OC)=NC3)ccc1C(=O)O + C=CC(=O)N1CCN(c2nc(=O)n(-c3c(C)ccnc3C(C)C)c3nc(-c4c(O)cccc4F)c(F)cc23)C(C)C1	< 31.6	< 31.6	< 31.6	< 31.6	25.7	24.3	25.9	24.3	22.8	12.2	11.9	11.1	11.3	11.4	27.2	23.6	23.5	24.6	25.7	23.8	IC50 (second compound 10 µM): < 31.6 nM; viability, T/C (second compound 0.1 µM, first compound 10 µM): 21.6%; viability, T/C (second compound 0.316 µM, first compound 10 µM): 9.24%; viability, T/C (second compound 1 µM, first compound 10 µM): 21.6%; viability, T/C [17]: 20.6%; viability, T/C [18]: 20.2%; viability, T/C [19]: 22.2%; viability, T/C [20]: 21%; viability, T/C (second compound 3.16 µM, first compound 10 µM): 20.6%; viability, T/C (second compound 10 µM, first compound 0.0316 µM): 23.3%; viability, T/C (second compound 10 µM, first compound 0.1 µM): 23.5%; viability, T/C (second compound 10 µM, first compound 0.316 µM): 23.8%; viability, T/C (second compound 10 µM, first compound 1 µM): 24.4%; viability, T/C (second compound 10 µM, first compound 3.16 µM): 22.5%; viability, T/C (second compound 10 µM, first compound 10 µM): 29.5%
CC1COCCN1c1cc(-c2ccnn2C)c2ccnc(-c3ccn[nH]3)c2n1 (stereo not given) + C=CC(=O)N1CCN(c2nc(OCC3CCCN3C)nc3c2CCN(c2cccc4cccc(C)c24)C3)CC1CC#N	< 10	< 10	< 10	< 10	21.2	17.4	12.7	10.8	10.4	19.4	15.6	11.3	12.1	10.7	21.4	16.7	13.9	13.9	13.7	22.6	IC50 (second compound 0.0316 µM): < 10 nM; viability, T/C (second compound 0.0316 µM, first compound 0.01 µM): 33.7%; viability, T/C (second compound 0.0316 µM, first compound 0.0316 µM): 23.5%; viability, T/C (second compound 0.0316 µM, first compound 0.1 µM): 17.1%; viability, T/C (second compound 0.0316 µM, first compound 0.316 µM): 15.6%; viability, T/C (second compound 0.0316 µM, first compound 1 µM): 14.1%; viability, T/C (second compound 0.0316 µM, first compound 3.16 µM): 12.7%; viability, T/C (second compound 0.1 µM, first compound 0.01 µM): 26.9%; viability, T/C (second compound 0.316 µM, first compound 0.01 µM): 24.7%; viability, T/C (second compound 1 µM, first compound 0.01 µM): 26.8%; viability, T/C (second compound 3.16 µM, first compound 0.01 µM): 26.2%; viability, T/C [17]: 20.8%; viability, T/C [18]: 17.3%; viability, T/C [19]: 13.3%; viability, T/C [20]: 12.2%
